The text below walks through data of a melting point compilation (Tetko et al.; mined from patent text by program, amines drawn as free bases though some values may be those of a salt).

By melting point is commonly meant the temperature, or range, at which the solid turns liquid. `Cc1cc(N)nc(CCc2nc3cc(-c4ccc(C#N)cc4)cnc3[nH]2)c1`: the melting point turned out to be 218 °C. Then `C[C@@H]1C[C@H](C)CN(C(=O)[C@@H]2Cc3cc(Br)ccc3N2c2ncccn2)C1`, with 142 to 144 °C. Then `CCCCNC(=O)C(C)(C)N=NC(C)(C)C(=O)NCCCC`, with 65 °C; and `COCc1nc2c(N)nc3ccccc3c2n1CC(C)(C)O`, with 174 to 175 °C. Then `CC(=O)NCC1CN(c2ccc(N3CCC(O)(C#N)C(C)(C)C3)c(F)c2)C(=O)O1` (stereo not drawn), with 65 to 68 °C. In the case of `O=C(O)CCCCCN1CCCCC1`, the melting point fell in the range of 74 to 76 °C.

With `CCN1c2ncccc2C(=O)N(C)c2ccc(-c3c[nH]nc3C)nc21`, the melting point was in the range of 113 to 115 °C. Then `CCC(=C(c1ccc(I)cc1)c1ccc(OCCCCl)cc1)c1ccccc1`, with 98 to 100 °C; and `O=C(NO)OCC1c2ccccc2-c2ccccc21`, with 160 °C; and `COC(=O)[C@H](c1ccccc1Cl)N1CCc2sc(OC(C)=O)cc2C1`, with 73 to 75 °C.

`O=C(Nc1ccccc1)NC(Cc1c[nH]c2ccccc12)C(=O)NCc1cc(C(F)(F)F)cc(C(F)(F)F)c1` (stereo not drawn) showed a melting point of 219 to 221 °C. `CC(=O)Nc1ccc(C=CC(=O)N2CCc3c([nH]c4ccccc34)C2c2ccccc2)cc1` (stereo not drawn) showed a melting point of 177 to 180 °C.

`CC(=O)CCCN1C(=O)c2ccccc2S1(=O)=O` gave a melting point of 90 to 93 °C. Then `O=c1c2c(Cl)cc(Cl)cc2[nH]c2c(O)nn(-c3ccccc3)c(=O)c12`, with 361 to 363 °C; and `CC(C)(C)OC(=O)NCCn1cc(COc2ccc(C3=NC(=Nc4[nH]c(-c5ccc(O)cc5)cc4-c4ccccc4)C(c4ccccc4)=C3)cc2)nn1`, with 128 to 130 °C. Then `COc1ccc(C(=O)Nc2ccccc2)cc1NCc1cccc2ccccc12`, with 172 to 174 °C. In the case of `COc1ccccc1N1CCN(CCCCOc2ccc(-c3cn4cccnc4n3)cc2)CC1`, the melting point was 151 to 153 °C. As for `CCOC(=O)c1cn(CC2CC2)c2cc(-n3cccc3)c(F)cc2c1=O`, the melting point lay within 125 to 127 °C. Then `COc1cccc2c(C3CCN(C(=O)OC(C)(C)C)CC3)noc12`, with 130 to 132 °C. Then `COc1cc2cc(C3CCCC3)sc2c(Cl)c1Cl`, with 59.5 to 60 °C. Regarding `CCOC(=O)Nc1cc(C(=O)OC)c(O)c2ncc(Cc3ccc(F)cc3)cc12`, the melting point was in the range of 205 to 206 °C. `Cc1ccc(-c2c3c(cc4ccc(O)cc24)-c2ccc(O)cc2CO3)cc1C` came in with a melting point of 218 to 221 °C. Then `Cc1ccc2c(c1)[C@@H]1CN(C)CC[C@@H]1CC2=O` (relative stereo), with > 250 °C; and `COc1cccc(Nc2n[nH]c3ncn(-c4cccc(Cl)c4)c(=N)c23)c1`, with 190 to 192 °C; and `CSc1nn(C(=O)NS(=O)(=O)c2ccccc2OC(F)(F)F)c(=O)n1N`, with 136 °C. Then `O=C(NCCO)/C(=C/c1ccc(OC(F)(F)F)cc1)NC(=O)c1ccc(OCCCC(F)(F)F)cc1`, with 160 to 163 °C; and `C=C(CCl)C(C(=O)OC(c1ccccc1)c1ccccc1)N1C(=O)C2N=C(Cc3ccccc3)OC21` (stereo not drawn), with 82 to 83 °C. For `CN(Cc1ccccc1)C(N)=NC#N`, the melting point fell in the range of 102 to 105 °C.

As for `FC(F)C(F)(F)Oc1cccc(Nc2nccc(-c3ccnc(Cl)c3)n2)c1`, the melting point is 150 to 153 °C.

As to `O=C(O)[C@H]1O[C@H](c2ccccc2Cl)c2cc(Cl)ccc2N(Cc2ccccc2)C1=O` (relative stereo), the melting point worked out at 177 °C. `CCOC(=O)c1[nH]c2cc(Cl)cc(Cl)c2c1NCCC(=O)c1ccc(C(F)(F)F)cc1`: the melting point was 232 to 234 °C. Then `CC(C)c1nc(C(C)C)c(CCCC(=O)O)c(-c2ccc(F)cc2)c1CO`, with 160 °C; and `Cc1ncc(-c2cccc(Nc3ncnc4c3CCOc3ccccc3-4)c2)n1C`, with 235 to 237 °C.
